Data on 47 compounds can be found in article PMC12040169 (PLOS Biology, 2025).

A short description of this series: in vitro. The following applies: human, hela cells, % viability.

The structures appear in SMILES notation.

The term viability denotes a read-out of living cells in per cent, often relative to untreated cells. On to `C[C@H]1[C@@H]2[C@@H](O)C([C@H](C)C(=O)N3CCCC3)CC[C@@]2(C)CC[C@@H]1NC(=O)c1ccncc1` (some centres unmarked) [CBK289450], for which the viability at 28.5 h, 10 µM worked out at 94.8%.
Take `COCCC(=O)N[C@H]1CC[C@]2(C)CCC([C@H](C)C(=O)N3CCC(C)CC3)[C@H](O)[C@H]2[C@@H]1C` (some centres unmarked) [CBK289451]: the viability at 28.5 h, 10 µM turned out to be 103%.
Still for that read-out and setting: with `CCNC(=O)N[C@H]1CC[C@]2(C)CCC([C@H](C)C(=O)N3CCCCC3)[C@H](O)[C@H]2[C@@H]1C` (some centres unmarked) [CBK289455] the figure was 84.7%; with `COCCNC(=O)[C@@H](C)C1CC[C@@]2(C)CC[C@H](NS(C)(=O)=O)[C@@H](C)[C@@H]2[C@H]1O` (some centres unmarked) [CBK289457], 93.5%; with `COC(=O)CO[C@@H]1CO[C@H]2[C@@H]1OC[C@@H]2NC(=S)Nc1ccccc1` [CBK289459], 88.3%.
`CC(=O)c1ccc(NC(=O)N[C@H]2CO[C@H]3[C@@H]2OC[C@H]3OCC(N)=O)cc1` [CBK289460]: the viability at 28.5 h, 10 µM was determined as 117%.
As for `CO[C@@H]1CO[C@H]2[C@@H]1OC[C@@H]2NC(=O)Nc1cccc(C(F)(F)F)c1` [CBK289461], the viability at 28.5 h, 10 µM amounted to 112%.
Consider `CO[C@@H]1CO[C@H]2[C@@H]1OC[C@@H]2NC(=O)Nc1ccc(C(C)=O)cc1` [CBK289462], for which the viability at 28.5 h, 10 µM was found to be 106%.
On to `O=C(Nc1ccccc1)N[C@H]1CO[C@H]2[C@@H]1OC[C@H]2OC(=O)Nc1ccccc1` [CBK289465], for which the viability at 28.5 h, 10 µM was 89.1%.
On to `C=CCNC(=O)N[C@H]1CO[C@H]2[C@@H]1OC[C@H]2OC(=O)Nc1ccccc1` [CBK289466], for which the viability at 28.5 h, 10 µM came to 115%.
For the compound `O=C(NC1CCCCC1)O[C@@H]1CO[C@H]2[C@@H]1OC[C@@H]2NS(=O)(=O)Cc1ccccc1` [CBK289467], the viability at 28.5 h, 10 µM was 87.8%.
On to `CS(=O)(=O)N[C@H]1CO[C@H]2[C@@H]1OC[C@H]2OC(=O)Nc1cccc2ccccc12` [CBK289469], for which the viability at 28.5 h, 10 µM was determined as 89%.
Regarding `CCNC(=O)O[C@@H]1CO[C@H]2[C@@H]1OC[C@@H]2NC(=O)Nc1ccc(C(C)=O)cc1` [CBK289473], the viability at 28.5 h, 10 µM came to 93.5%.
On to `CCNC(=O)O[C@@H]1CO[C@H]2[C@@H]1OC[C@@H]2NS(=O)(=O)c1ccccc1C#N` [CBK289474], for which the viability at 28.5 h, 10 µM is 87.6%.
For `CC(=O)c1ccc(NC(=O)O[C@@H]2CO[C@H]3[C@@H]2OC[C@@H]3NC(=O)C2CCC2)cc1` [CBK289475], the viability at 28.5 h, 10 µM came out at 89.3%.
In the case of `NC(=O)CO[C@@H]1CO[C@H]2[C@@H]1OC[C@@H]2NCc1ccccc1` [CBK289479], the viability at 28.5 h, 10 µM was 112%.
As for `Cc1ccc(S(=O)(=O)N[C@H]2CO[C@H]3[C@@H]2OC[C@@H]3n2nnnc2Oc2ccccc2)cc1` [CBK289485], the viability at 28.5 h, 10 µM is 82.4%.
The same measure, in the same setting: in the case of `O=C(N[C@H]1CO[C@H]2[C@@H]1OC[C@@H]2n1nnnc1Oc1ccc(-n2ccnc2)cc1)c1ccco1` [CBK289486] it was 91.9%.
Take `O=C(Nc1ccccc1)N[C@H]1CO[C@H]2[C@@H]1OC[C@H]2OCc1ccccc1` [CBK289488]: the viability at 28.5 h, 10 µM came to 109%.
With `COCc1cn([C@H]2CO[C@H]3[C@@H]2OC[C@H]3OC)nn1` [CBK289490], the viability at 28.5 h, 10 µM turned out to be 89.9%.
Take `COC(=O)c1cn([C@H]2CO[C@H]3[C@@H]2OC[C@H]3O)nn1` [CBK289491]: the viability at 28.5 h, 10 µM stood at 87.5%.
`CN(C)Cc1cn([C@H]2CO[C@H]3[C@@H]2OC[C@@H]3NC(=O)NC2CCCCC2)nn1` [CBK289493]: the viability at 28.5 h, 10 µM was 88.9%.
As for `COCc1cn([C@H]2CO[C@H]3[C@@H]2OC[C@@H]3NC(=O)c2ccc(OC)cc2)nn1` [CBK289494], the viability at 28.5 h, 10 µM is 115%.
Regarding `COC(=O)c1cn([C@H]2CO[C@H]3[C@@H]2OC[C@@H]3NC(=O)C2CCCCC2)nn1` [CBK289496], the viability at 28.5 h, 10 µM is 98.4%.
As to `COC(=O)c1cn([C@H]2CO[C@H]3[C@@H]2OC[C@@H]3NC(=O)NC2CCCCC2)nn1` [CBK289499], the viability at 28.5 h, 10 µM came out at 82.4%.
Take `COC(=O)c1cn([C@H]2CO[C@H]3[C@@H]2OC[C@@H]3NC(=O)Nc2cccc(C(F)(F)F)c2)nn1` [CBK289501]: the viability at 28.5 h, 10 µM worked out at 78.9%.
On the same count and under the same terms, with `N[C@H]1CO[C@H]2[C@@H]1OC[C@@H]2n1cc(-c2ccccc2)nn1` [CBK289502] the figure was 81.6%.
With `Cc1ccc(C(=O)N[C@H]2CO[C@H]3[C@@H]2OC[C@@H]3n2cc(-c3ccccc3)nn2)cc1` [CBK289504], the viability at 28.5 h, 10 µM worked out at 81.4%.
With `O=S(=O)(N[C@H]1CO[C@H]2[C@@H]1OC[C@@H]2n1cc(-c2ccccn2)nn1)c1cccs1` [CBK289508], the viability at 28.5 h, 10 µM amounted to 88.7%.
Take `O=C(NC1CCCCC1)N[C@H]1CO[C@H]2[C@@H]1OC[C@@H]2n1cc(CC2CCCCC2)nn1` [CBK289510]: the viability at 28.5 h, 10 µM came to 75.2%.
Turning to `c1c(CC2CCCCC2)nnn1[C@H]1CO[C@H]2[C@@H]1OC[C@@H]2NCC1CC1` [CBK289511], the viability at 28.5 h, 10 µM is 99.1%.
Turning to `O=C(Nc1ccccc1)O[C@@H]1CO[C@H]2[C@@H]1OC[C@@H]2Nc1nccc(-c2cccs2)n1` [CBK289513], the viability at 28.5 h, 10 µM was 97.8%.
For the compound `O=C(NC1CCCCC1)O[C@@H]1CO[C@H]2[C@@H]1OC[C@@H]2Nc1nccc(-c2cccs2)n1` [CBK289514], the viability at 28.5 h, 10 µM was determined as 87.4%.
As for `CN(C)C(=O)CO[C@@H]1CO[C@H]2[C@@H]1OC[C@@H]2Nc1nccc(-c2cccs2)n1` [CBK289515], the viability at 28.5 h, 10 µM was found to be 109%.
For the compound `CS(=O)(=O)N[C@H]1CO[C@H]2[C@@H]1OC[C@@H]2Nc1nccc(-c2cccs2)n1` [CBK289519], the viability at 28.5 h, 10 µM is 92%.
In the case of `CC(C)CNC(=S)N[C@H]1CO[C@H]2[C@@H]1OC[C@@H]2Nc1nccc(C(C)(C)C)n1` [CBK289523], the viability at 28.5 h, 10 µM was 90.9%.
As to `CC(C)(C)c1ccnc(N[C@H]2CO[C@H]3[C@@H]2OC[C@@H]3NCc2ccccn2)n1` [CBK289524], the viability at 28.5 h, 10 µM was 86.6%.
In the case of `CCNC(=O)N[C@H]1CO[C@H]2[C@@H]1OC[C@@H]2Nc1nccc(-c2ccc(OC)cc2)n1` [CBK289528], the viability at 28.5 h, 10 µM worked out at 89.3%.
On the same count and under the same terms, in the case of `COc1ccccc1-c1ccnc(N[C@H]2CO[C@H]3[C@@H]2OC[C@@H]3NC(=O)C2CCCCC2)n1` [CBK289529] it was 94.8%; in that of `CC(C)(C)C(=O)N[C@H]1CO[C@H]2[C@@H]1OC[C@@H]2Nc1nccc(C2CCCC2)n1` [CBK289530], 115%; in that of `O=C(NC1CCCCC1)N[C@H]1CO[C@H]2[C@@H]1OC[C@@H]2Nc1nccc(C2CCCC2)n1` [CBK289531], 82.7%.
`CN(C)C(=O)CO[C@@H]1CO[C@H]2[C@@H]1OC[C@@H]2Nc1nccc(-c2cccc(F)c2)n1` [CBK289533]: the viability at 28.5 h, 10 µM came to 87.9%.
Same read-out and setting: in the case of `CC(C)CCN[C@H]1CO[C@H]2[C@@H]1OC[C@@H]2n1nnnc1-c1ccccc1` [CBK289537] it was 88.1%.
As for `CC(C)NC(=O)N[C@H]1CCN2C(=O)N(c3ccc(F)c(Cl)c3)C(=O)[C@@H]2C1` [CBK289540], the viability at 28.5 h, 10 µM turned out to be 83.1%.
In the case of `O=C(N[C@H]1CCN2C(=O)N(CCCl)C(=O)[C@@H]2C1)c1cccs1` [CBK289542], the viability at 28.5 h, 10 µM (bulk resorufin, single well) was 90.8%.
Regarding `O=C(N[C@H]1CCN2C(=O)N(c3cccc4nsnc34)C(=O)[C@@H]2C1)c1cccs1` [CBK289543], the viability at 28.5 h, 10 µM came to 87%.
Take `O=C(N[C@H]1CCN2C(=O)N(c3cccc4nsnc34)C(=O)[C@@H]2C1)c1ccnc(Cl)c1` [CBK289545]: the viability at 28.5 h, 10 µM stood at 91.2%.
